Measured values taken from patent US6756362B2, “Methods and compositions based on inhibition of cell invasion and fibrosis by anionic polymers” (priority 1991, dated 2004).

How the values were obtained:
PC12 cells = experiment: PC12 neurite outgrowth assay; type: cell-based; settings: NGF-primed PC12 cells; scored 2 days later
Experimental: (§1) Cell lines. Murine 3T3 fibroblast (NIH), rat C6 glioma (Paganetti et al., 1988, J. Cell Biol. 107:2281) and MCG-28 young immortalized mouse astrocyte (a murine neonatal astrocyte line immortalized with SV-40) were grown in medium composed of Dulbecco's modified Eagle medium (DMEM), 10% fetal calf serum (Gibco Laboratories), and penicillin G/streptomycin (100 units/ml, 100 μg/ml respectively, Gibco Laboratories). For the stripe assay, confluent plates were disaggregated with 0.05% trypsin, 0.53 mM EDTA (Gibco Laboratories) and seeded at 200,000 cells/ml (3 ml/plate). For the cell adhesion assays, confluent cultures were disaggregated with 0.03% EDTA and plated in a 96-well microtiter plate at 20,000-100,000 cells per well. PC12 cells, a pheochromocytoma cell line (Green L. A. & Tischler A. S., 1976, Proc. Natl. Acad. Sci. U.S.A. 73:2424), were grown in medium containing Roswell Park Memorial Institute (RPMI) medium 1640 (Gibco Laboratories), 10% horse serum, 5% fetal calf serum (FCS), and penicillin G/streptomycin (100 units/ml, 100 μg/ml respectively, Gibco Laboratories). The cells were disaggregated with 0.03% EDTA and plated in a 96-well microtiter plate at 3,000 cells per well.
PC12 cells were primed with 20 ng/ml NGF for 8 days, collected with 0.03% EDTA in PBS and plated in precoated 96-well microtiter plates at 3,000 cells/well. The microtiter plates were precoated with poly-L-lysine and blocked with adhesion medium (1% BSA in RPMI) for 20 min prior to addition of cells. The cells were grown in adhesion medium supplemented with 20 ng/ml NGF. The cells were allowed to attach for 2 hr prior to the addition of the test compounds (Akeson and Warren, 1986, Exp. Cell Res. 162:347-362).
PC-12 cells primed with NGF were plated in 96-well plates. Test solutions were added to the wells and the cells were scored 2 days later as (+) if neurites of at least two cell bodies diameter in length were present on the majority of the cells, and (−) if no or only short processes were present. […] The compounds tested included GAGs (heparin, dermatan sulfate, chondroitin sulfate A, keratan sulfate and hyaluronic acid), sulfated carbohydrate polymers (dextran sulfate and pentosan polysulfate), and another polyanionic polymer (e.g., alginic acid).

Sulfur content = type: physicochemical; settings: by weight
[1] = tested on: epidural fibrosis at laminectomy site, Lewis inbred rats; experiment: Epidural fibrosis after lumbar laminectomy in rats, gross evaluation; type: in vivo, rat; parameters: TOTAL SCORE / TOTAL SCORE 2 WEEKS: scale not given here; settings: for inhibition of scar formation (in words): 20 mg/ml, versus buffer control; for TOTAL SCORE: Table 5, agent 20 mg/ml
Experimental: Epidural fibrosis was investigated after lumbar laminectomy in rats. In this model, a laminectomy was performed at the lumbar 3 and 5 vertebrae and then the test agent was applied to the laminectomy site. Subsequently, the laminectomy sites were examined for fibrosis by gross dissection or by histological analysis.
Laminectomies (described below) were performed at lumbar vertebrae L3 and L5 to provide auto-controls within each animal. Segments of GELFOAM® (Upjohn) soaked with experimental or control solutions were inserted into the laminectomy site. The soared GELFOAM® fragments were prepared and coded 24 hours beforehand. The GELFOAM® segments were soaked in solutions of dextran sulfate in calcium/magnesium-free phosphate buffered saline (CMF-PBS), dextran in CMF-PBS, or CMF-PBS alone. In some laminectomy sites, the GELFOAM® fragments were omitted, in order to serve as sham operations. Subsequently, the evaluation by gross dissection was done without knowledge of which solutions had been placed in which laminectomy site. Thus, the experiments were double-blind.
Lewis inbred rats were anesthetized with 4% chloral hydrate (34 mg/100 g body weight). The dorsal skin was incised and the paraspinal muscles were separated from the spinous processes of lumbar vertebrae L2 through L6. The spinous processes of L3 and L5 were removed with a rongeurs; then the vertebral lamina was removed with a micro-rongeurs creating a rectangular laminectomy defect 4×2 mm in size. After bleeding was stopped, a GELFOAM® segment was placed into the laminectomy site according to a randomized protocol. The overlying paraspinal muscles were closed over the site by suturing the superficial fascia together with resorbable 6-0 PDS II (Ethicon). The skin incision was closed with wound clips.
The animals were kept for two weeks prior to gross evaluation. At that time, the rats were anesthetized with 4% chloral hydrate and the wound was reopened by incising, the skin and separating the paraspinal muscles. The quality and quantity of scar tissue above the laminectomy site, the appearance of the GELFOAM® and the extent of new bone growth was evaluated by visual and tactile observation during sharp dissection. After the gross evaluation was complete, the rats were euthanized by anesthesia overdose.
All gross evaluations were made prior to breaking the treatment code, but the observations have been tabulated and presented below according to treatment group.

3T3 cells = experiment: Colorimetric cell adhesion assay, 3T3; type: cell-based, mouse; settings: 3T3 cells on PLL; 4 hr incubation; FIG. 7
Experimental: as §1
(§2) Microtiter plates were precoated with poly-L-lysine and blocked with 1% BSA in DMEM for 20 min prior to addition of cells. The cells were plated on the precoated 96-well plates and test compounds were added to the culture medium. Following 4-24 hr incubation at 36° C., 5% C02, in a humidified incubator, the tetrazolium salt MTT (3-(4,5-dimethylthazol-2-yl)-2,5-diphenyl tetrazolium bromide) was added. The cultures were incubated for 2 hr to allow mitochondrial succinate dehydrogenase, found in viable cells, to […] the MTT to its formazan blue reaction product. The media was aspirated and the wells were rinsed to remove all detached cells. The formazan blue reaction product in attached cells was solubilized with 0.08 N HCl in isopropanol, and the plates were read in a microtiter plate reader (Dynatech MR4000) at 570 nm with a 630 nm reference filter. The resulting optical density readings are directly related to the number of viable cells in the well (Mosmann, T., 1983, J. Immunol. Methods 65:55-63). The samples were run in 3-6 replicates per point and the SD was less than 5%.
(§3) The adhesion of fibroblasts to PLL-coated microtiter plates in the presence of test compounds in the culture medium was evaluated using an MTT assay as described in Section 8.1.5., supra, and the number of attached cells was expressed as percent of control. The effect of 4 hr incubation in the presence of heparin, pentosan polysulfate, dextran sulfate, and dextran on adhesion of rat meningeal fibroplasts (RMF) and 3T3 cells to PLL is shown in FIG. 7.

[2] = tested on: rat meningeal fibroblasts (RMF); experiment: Colorimetric cell adhesion assay, RMF; type: cell-based; settings: RMF on PLL; 4 hr incubation; FIG. 7
Experimental: Primary Cell Cultures. Primary cultures of rat meningeal fibroblasts (RMF) were obtained from P-3 rat pups. The tissue was removed from the animals and transferred to Leibovitz's L-15 with L-glutamine medium. The tissue was then cut into small pieces with a scalpel blade, enzymatically dissociated with 0.25% trypsin in Ca^2+/Mg^2+ free Hank's balanced salt solution (CMF-HBSS, Gibco Laboratories) for 20 minutes at 37° C., and mechanically triturated. The cells were rinsed with DMEM plus 10% FCS, concentrated by centrifugation and subsequently diluted in DMEM with 10% FCS for plating at 5.0×10^6 cells per 75 cm^2 flask. Adult rat sciatic nerve fibroblasts (RSF) were obtained by explantation of 1 mm sections of adult rat sciatic nerve.
as §2, §3

Sulfur Content (Sulfur content)	Substance	IC100, minimum concentration causing 100% inhibition of neurite outgrowth (PC12 cells)	inhibition of scar formation (in words) [1]	TOTAL SCORE [1]	number of attached cells compared to untreated controls (3T3 cells)	number of attached cells compared to untreated controls [2]
0%	alginate	3.1e-06 g/mL	marginal improvement	7.3 ± 1.9		
6.0%	dermatan sulfate [Dermatan sulfate 90%]	1.5e-05 g/mL				
6.4%	keratan sulfate					

More lines, now with the values behind:

Substance	Sulfur Content (Sulfur content)	IC100, minimum concentration causing 100% inhibition of neurite outgrowth (PC12 cells)	inhibition of scar formation (in words) [1]	TOTAL SCORE [1]	number of attached cells compared to untreated controls (3T3 cells)	number of attached cells compared to untreated controls [2]
chondroitin sulfate A	5.6%	0.0005 g/mL				
hyaluronic acid [reference compound]	0.6-0.8%	0.0002 g/mL	no ability to inhibit scar formation	9.3 ± 0.5		
pentosan polysulfate [reference compound]	16.5%	3.9e-07 g/mL	partial inhibition	5.0 ± 1.0	decreased	decreased
